Results reported in ChEMBL document CHEMBL4837257, “Discovery of the Oxadiazine FRM-024: A Potent CNS-Penetrant Gamma Secretase Modulator” (J Med Chem, 2021).

Legend:
Rattus norvegicus [1] = assay: In vivo modulation of gamma secretase in rat assessed as reduction in Abeta37 levels in brain by measuring AUC(0 to 24 hrs) at 30 mg/kg, po by ELISA; format: functional; design: scale not given: the % may be the effect or the level left
Rattus norvegicus [2] = assay: In vivo modulation of gamma secretase in rat assessed as reduction in Abeta42 levels in CSF by measuring AUC(0 to 24 hrs) at 30 mg/kg, po by ELISA; format: functional, Cerebrospinal fluid; design: scale not given: the % may be the effect or the level left
[3] = Toxicity in guinea pig assessed as effect on inotropy and lusitropy in heart by Langendorff test; format: tissue-based, Cavia porcellus; conditions: in vivo
[4] = Toxicity in rat assessed as effect on arterial pressures by telemetry; conditions: in vivo
[5] = Toxicity in guinea pig assessed as effect on repolarization in heart by Langendorff test; format: tissue-based, Cavia porcellus; conditions: in vivo
[6] = Toxicity in rat assessed as effect on cardiac compliance by telemetry; conditions: in vivo
[7] = Drug metabolism in dog hepatocytes assessed as mono and di-oxidative metabolites formation after 4 hrs; format: ADME, cell-based, Canis lupus familiaris, Hepatocyte
[8] = Toxicity in guinea pig assessed as effect on ion channel function in heart by Langendorff test; format: tissue-based, Cavia porcellus; conditions: in vivo
[9] = In vivo modulation of gamma secretase in nonhuman primate assessed as reduction in Abeta40 levels in CSF by measuring AUC(0 to 48 hrs) at 30 mg/kg, po by ELISA; format: functional, Primates, Cerebrospinal fluid; design: scale not given: the % may be the effect or the level left
[10] = Apparent permeability across apical to basolateral side in MDCK-MDR1 cells; format: ADME, cell-based, Canis lupus familiaris; conditions: dog
[11] = target: Sodium-dependent serotonin transporter (Homo sapiens) (UniProt P31645); assay: Inhibition of serotonin transporter (unknown origin) at 10 uM relative to control
Rattus norvegicus [12] = assay: In vivo modulation of gamma secretase in rat assessed as reduction in Abeta40 levels in brain by measuring AUC(0 to 24 hrs) at 30 mg/kg, po by ELISA; format: functional; design: scale not given: the % may be the effect or the level left
[13] = AUClast in rat at 3 mg/kg, po; format: ADME, organism-based; design: time 0 - last, route oral, dose 3 mg/kg; conditions: in vivo
[14] = target: D(2) dopamine receptor (Homo sapiens) (UniProt P14416); assay: Inhibition of dopamine 2-like receptor (unknown origin) at 10 uM relative to control
Cytochrome P450 1A2 [15] = target: T1, Cytochrome P450 1A2 (Homo sapiens, UniProt P05177); assay: Inhibition of CYP1A2 in human hepatocytes upto 50 uM incubated for 72 hrs; format: ADME, cell-based, Hepatocyte
T1 sequence (P05177 whole entry): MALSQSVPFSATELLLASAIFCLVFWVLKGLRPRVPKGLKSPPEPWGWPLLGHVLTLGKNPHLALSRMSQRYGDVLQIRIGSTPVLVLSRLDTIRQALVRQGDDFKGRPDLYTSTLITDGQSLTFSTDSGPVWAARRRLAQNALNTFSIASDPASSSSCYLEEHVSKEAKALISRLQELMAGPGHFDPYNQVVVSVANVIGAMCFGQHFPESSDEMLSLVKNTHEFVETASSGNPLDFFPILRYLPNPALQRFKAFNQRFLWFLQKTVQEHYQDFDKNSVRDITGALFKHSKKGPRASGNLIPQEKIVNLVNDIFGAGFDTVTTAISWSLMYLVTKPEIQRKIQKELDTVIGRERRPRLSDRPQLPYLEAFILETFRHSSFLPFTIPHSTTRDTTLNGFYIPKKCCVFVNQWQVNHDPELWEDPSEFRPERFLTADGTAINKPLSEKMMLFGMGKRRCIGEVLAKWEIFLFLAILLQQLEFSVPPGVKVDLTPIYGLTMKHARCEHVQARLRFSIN

[16] = Toxicity in guinea pig assessed as effect on signal conduction function in heart by Langendorff test; format: tissue-based, Cavia porcellus; conditions: in vivo
Rattus norvegicus [17] = assay: In vivo modulation of gamma secretase in rat assessed as reduction in Abeta42 levels in brain at 30 mg/kg, po measured after 6 hrs by ELISA relative to control; format: functional; design: scale not given: the % may be the effect or the level left
Cytochrome P450 2C19 = Cytochrome P450 2C19 (Homo sapiens, UniProt P33261); assay: Inhibition of CYP2C19 (unknown origin); format: ADME
[18] = AUClast in nonhuman primate at 10 mg/kg, po; format: ADME, organism-based; design: time 0 - last, route oral, dose 10 mg/kg; conditions: primates, in vivo
[19] = Apparent permeability across apical to basolateral side in human Caco2 cells; format: ADME, cell-based; conditions: Caco-2
Cytochrome P450 3A4 [20] = target: T2, Cytochrome P450 3A4 (Homo sapiens, UniProt P08684); assay: Inhibition of CYP3A4 in human hepatocytes upto 50 uM incubated for 72 hrs; format: ADME, cell-based, Hepatocyte
Cytochrome P450 3A4 [21] = target: T2, Cytochrome P450 3A4; assay: Inhibition of CYP3A4 (unknown origin); format: ADME
[22] = target: Cannabinoid receptor 1 (Homo sapiens) (UniProt P21554); assay: Inhibition of Cannabinoid receptor 1 (unknown origin) at 10 uM relative to control
[23] = Cmax in dog at 10 mg/kg, po; format: ADME, organism-based, Canis lupus familiaris; design: route oral, dose 10 mg/kg; conditions: in vivo
Homo sapiens = organism: Homo sapiens; assay: Inhibition of adenosine transporter (unknown origin) at 10 uM relative to control
Rattus norvegicus [24] = assay: In vivo modulation of gamma secretase in rat assessed as reduction in Abeta42 levels in CSF at 30 mg/kg, po measured after 6 hrs by ELISA relative to control; format: functional, Cerebrospinal fluid; design: scale not given: the % may be the effect or the level left
Cytochrome P450 1A2 [25] = target: T1, Cytochrome P450 1A2; assay: Inhibition of CYP1A2 (unknown origin); format: ADME
Cytochrome P450 2C8 = target: T3, Cytochrome P450 2C8 (Homo sapiens, UniProt P10632); assay: Inhibition of CYP2C8 (unknown origin); format: ADME
T3 sequence (P10632 whole entry): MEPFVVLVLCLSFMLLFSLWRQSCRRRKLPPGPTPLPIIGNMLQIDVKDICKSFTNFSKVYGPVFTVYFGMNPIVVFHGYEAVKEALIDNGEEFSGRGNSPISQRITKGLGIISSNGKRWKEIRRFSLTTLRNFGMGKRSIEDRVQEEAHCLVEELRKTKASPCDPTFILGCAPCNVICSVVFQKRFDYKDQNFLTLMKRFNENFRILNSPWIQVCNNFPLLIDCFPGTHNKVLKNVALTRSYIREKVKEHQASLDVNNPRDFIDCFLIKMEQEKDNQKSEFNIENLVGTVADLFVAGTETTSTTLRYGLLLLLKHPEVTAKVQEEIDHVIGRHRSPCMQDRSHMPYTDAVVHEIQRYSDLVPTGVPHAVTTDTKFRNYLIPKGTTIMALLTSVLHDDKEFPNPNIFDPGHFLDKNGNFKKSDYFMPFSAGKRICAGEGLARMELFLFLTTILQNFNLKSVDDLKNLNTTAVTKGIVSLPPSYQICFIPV

Rattus norvegicus [26] = assay: In vivo modulation of gamma secretase in rat assessed as reduction in Abeta42 levels in CSF at 30 mg/kg, po measured at 9 hrs by ELISA relative to control; format: functional, Cerebrospinal fluid; design: scale not given: the % may be the effect or the level left

T2 sequence (P08684 whole entry): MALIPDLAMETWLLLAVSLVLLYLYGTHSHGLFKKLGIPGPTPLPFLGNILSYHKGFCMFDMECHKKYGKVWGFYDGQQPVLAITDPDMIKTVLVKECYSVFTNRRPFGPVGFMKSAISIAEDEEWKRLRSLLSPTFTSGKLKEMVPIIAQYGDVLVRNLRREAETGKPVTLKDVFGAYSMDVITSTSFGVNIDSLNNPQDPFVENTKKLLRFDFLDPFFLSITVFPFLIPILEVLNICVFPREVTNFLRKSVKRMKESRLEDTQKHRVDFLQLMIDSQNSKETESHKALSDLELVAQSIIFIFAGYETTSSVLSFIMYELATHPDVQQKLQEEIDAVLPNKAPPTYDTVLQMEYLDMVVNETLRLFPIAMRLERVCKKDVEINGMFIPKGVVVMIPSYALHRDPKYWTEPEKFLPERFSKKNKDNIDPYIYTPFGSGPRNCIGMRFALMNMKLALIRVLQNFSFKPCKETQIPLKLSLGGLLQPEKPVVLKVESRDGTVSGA
Sequence of D(2) dopamine receptor (Homo sapiens) (P14416 whole entry): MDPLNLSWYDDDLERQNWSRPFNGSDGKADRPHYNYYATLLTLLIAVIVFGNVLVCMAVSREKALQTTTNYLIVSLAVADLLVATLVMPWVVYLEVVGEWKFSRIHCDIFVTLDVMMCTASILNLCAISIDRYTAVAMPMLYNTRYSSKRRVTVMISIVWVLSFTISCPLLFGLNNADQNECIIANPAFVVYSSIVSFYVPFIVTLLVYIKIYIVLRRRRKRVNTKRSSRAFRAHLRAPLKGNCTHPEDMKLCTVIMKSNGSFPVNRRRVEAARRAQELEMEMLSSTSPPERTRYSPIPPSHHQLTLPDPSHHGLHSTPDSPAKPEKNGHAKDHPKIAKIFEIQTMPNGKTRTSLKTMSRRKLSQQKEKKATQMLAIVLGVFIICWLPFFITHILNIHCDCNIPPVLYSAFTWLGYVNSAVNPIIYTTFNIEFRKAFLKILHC
Sequence of Cytochrome P450 2C19 (P33261 whole entry): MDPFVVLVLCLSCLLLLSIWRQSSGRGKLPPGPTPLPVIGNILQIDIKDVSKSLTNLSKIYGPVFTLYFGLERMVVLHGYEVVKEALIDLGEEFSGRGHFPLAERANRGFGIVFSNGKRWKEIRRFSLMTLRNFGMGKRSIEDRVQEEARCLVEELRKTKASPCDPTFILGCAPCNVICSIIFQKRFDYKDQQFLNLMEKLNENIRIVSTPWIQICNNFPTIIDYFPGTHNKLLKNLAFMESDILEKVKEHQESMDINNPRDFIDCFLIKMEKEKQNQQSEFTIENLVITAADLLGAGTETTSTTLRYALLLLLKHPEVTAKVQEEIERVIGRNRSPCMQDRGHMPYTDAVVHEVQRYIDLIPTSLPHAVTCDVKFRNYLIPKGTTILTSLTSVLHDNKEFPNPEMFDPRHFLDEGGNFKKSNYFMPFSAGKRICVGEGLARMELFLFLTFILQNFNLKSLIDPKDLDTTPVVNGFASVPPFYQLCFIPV
Sequence of Sodium-dependent serotonin transporter (Homo sapiens) (P31645 whole entry, looked up): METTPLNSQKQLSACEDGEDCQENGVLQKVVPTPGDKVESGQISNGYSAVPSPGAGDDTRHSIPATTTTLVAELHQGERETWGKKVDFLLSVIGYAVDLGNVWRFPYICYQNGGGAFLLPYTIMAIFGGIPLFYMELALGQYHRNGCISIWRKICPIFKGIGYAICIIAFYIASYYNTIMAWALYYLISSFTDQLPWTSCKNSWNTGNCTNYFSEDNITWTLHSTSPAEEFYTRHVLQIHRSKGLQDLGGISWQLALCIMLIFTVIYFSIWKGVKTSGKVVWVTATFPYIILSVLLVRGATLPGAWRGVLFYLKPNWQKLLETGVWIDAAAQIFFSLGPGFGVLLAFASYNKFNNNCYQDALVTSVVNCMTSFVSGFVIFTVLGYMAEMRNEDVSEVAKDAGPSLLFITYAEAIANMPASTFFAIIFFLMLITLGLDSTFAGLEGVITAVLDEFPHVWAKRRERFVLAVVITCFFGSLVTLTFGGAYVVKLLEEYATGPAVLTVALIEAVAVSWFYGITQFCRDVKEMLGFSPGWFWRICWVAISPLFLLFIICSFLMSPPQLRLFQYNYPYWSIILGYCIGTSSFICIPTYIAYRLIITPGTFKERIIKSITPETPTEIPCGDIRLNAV
Sequence of Cannabinoid receptor 1 (Homo sapiens) (P21554 whole entry): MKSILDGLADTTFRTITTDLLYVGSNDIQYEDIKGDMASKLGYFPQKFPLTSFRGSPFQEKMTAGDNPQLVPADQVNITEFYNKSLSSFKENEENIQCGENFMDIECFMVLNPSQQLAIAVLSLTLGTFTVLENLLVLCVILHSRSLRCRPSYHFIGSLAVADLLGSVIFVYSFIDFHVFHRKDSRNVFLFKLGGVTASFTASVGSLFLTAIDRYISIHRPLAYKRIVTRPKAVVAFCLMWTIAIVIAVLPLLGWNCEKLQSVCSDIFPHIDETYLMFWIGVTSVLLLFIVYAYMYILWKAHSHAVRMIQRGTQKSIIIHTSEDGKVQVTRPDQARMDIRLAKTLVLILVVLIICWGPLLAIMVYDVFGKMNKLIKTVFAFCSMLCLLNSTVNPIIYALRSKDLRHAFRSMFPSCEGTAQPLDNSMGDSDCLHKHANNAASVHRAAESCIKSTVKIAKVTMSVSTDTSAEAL

COc1nc(C2=NOC(C3CC3)C(c3ccc(Cl)cc3)N2)ccc1-n1cnc(C)c1 (centres undefined)
Activity (Rattus norvegicus [1]): 88% | Activity (Rattus norvegicus [2]): 71% | Activity [3]: Non-Toxic | Activity [4]: Non-Toxic | Activity [5]: Non-Toxic | Activity [6]: Non-Toxic | Drug metabolism [7]: Metabolite_Detected | Activity [8]: Non-Toxic | Activity [9]: 25% | Papp A→B [10]: 34 ×10⁻⁶ cm/s | inhibition [11]: > 50% | Activity (Rattus norvegicus [12]): 25% | AUC(0-t) [13]: 11.6 µM·h | inhibition [14]: > 50% | inhibition (INH) (Cytochrome P450 1A2 [15]): Not Active | Activity [16]: Non-Toxic | Activity (Rattus norvegicus [17]): 56% | IC50 (Cytochrome P450 2C19): 9.1 µM | AUC(0-t) [18]: 55.9 µM·h | Papp A→B [19]: 6.6 ×10⁻⁶ cm/s | inhibition (INH) (Cytochrome P450 3A4 [20]): Not Active | IC50 (Cytochrome P450 3A4 [21]): ≥ 14 µM | inhibition [22]: > 50% | Cmax [23]: 4.03 µM | inhibition (Homo sapiens): > 50% | Activity (Rattus norvegicus [24]): 88% | IC50 (Cytochrome P450 1A2 [25]): ≥ 14 µM | IC50 (Cytochrome P450 2C8): 2.6 µM | Activity (Rattus norvegicus [26]): 91%
